Consider eleven molecules from ChEMBL document CHEMBL3826953, “Development of Autotaxin Inhibitors: An Overview of the Patent and Primary Literature” (J Med Chem, 2016).

Data set [1] has as its target T1, Autotaxin (Homo sapiens, UniProt Q13822). As to the kind of experiment: Inhibition of recombinant ATX (unknown origin) expressed in baculovirus infected Hi5 cells using L-alpha-lysophosphatidylcholine as substrate preincubated for 30 mins followed by substrate addition measured after 90 mins by AmplexRed dye based fluorescence plate reader analysis. As to conditions: BTI-TN-5B1-4.

Data set [2] deals with T1, Autotaxin. Description: Inhibition of recombinant ATX in human […] cells using lysophosphatidylcholine as substrate preincubated for 15 mins followed by substrate addition measured after 90 mins by choline release assay. The format is cell-based.
The target of data set [3] is T1, Autotaxin. Description: Inhibition of recombinant human C-terminal V5/His6-tagged ATX expressed in HEK293 cells assessed as residual activity at 1 uM using oleoyl-lysophosphatidylcholine as substrate incubated for 16 hrs by choline release assay relative to control.
Data set [4] addresses T1, Autotaxin. As to the kind of experiment: Inhibition of recombinant human C-terminal V5/His6-tagged ATX expressed in HEK293 cells assessed as residual activity at 10 uM using oleoyl-lysophosphatidylcholine as substrate incubated for 16 hrs by choline release assay relative to control.
The target of data set [5] is T1, Autotaxin. Description: Inhibition of recombinant human C-terminal V5/His6-tagged ATX expressed in HEK293 cells assessed as residual activity at 100 uM using oleoyl-lysophosphatidylcholine as substrate incubated for 16 hrs by choline release assay relative to control.
For data set [6], the target named is T1, Autotaxin. Description: Inhibition of recombinant human C-terminal V5/His6-tagged ATX expressed in HEK293 cells assessed as choline release at 0.5 uM using oleoyl-lysophosphatidylcholine as substrate incubated for 18 hrs by non-linear regression analysis.
The target in data set [7] is T1, Autotaxin. Description: Inhibition of recombinant human C-terminal V5/His6-tagged ATX expressed in HEK293 cells assessed as choline release at 0.5 uM using oleoyl-lysophosphatidylcholine as substrate incubated for 18 hrs by linear regression analysis.
In data set [8] the target is T1, Autotaxin. As to the kind of experiment: Inhibition of human recombinant ATX using FS3 as substrate incubated for 2 hrs by fluorescence assay.
The target of data set [9] is T1, Autotaxin. Description: Mixed-type inhibition of human recombinant ATX using FS3 as substrate assessed as enzyme-substrate-inhibitor complex incubated for 2 hrs by Michaelis-Menten equation analysis.
Data set [10] concerns the target T1, Autotaxin. Description: Mixed-type inhibition of human recombinant ATX using FS3 as substrate assessed as enzyme-inhibitor complex incubated for 2 hrs by Michaelis-Menten equation analysis.
Data set [11] concerns the target T1, Autotaxin. As to conditions: 10 uM.
Description: Inhibition of recombinant human ATX at 10 uM using lysophosphatidylcholine (14:0) as substrate measured after 2 hrs by AmplexRed dye based fluorescence assay relative to control
The target in data set [12] is T1, Autotaxin. Description: Inhibition of recombinant human ATX using CPF4 as substrate measured after 3 hrs by fluorescence assay.
The target of data set [13] is Autotaxin (Rattus norvegicus, UniProt Q64610). As to the kind of experiment: Inhibition of ATX in rat plasma assessed as inhibition of LPA production after 2 hrs by LC-MS/MS analysis. Format: cell-free.
In data set [14] the target is T2, Autotaxin (Mus musculus, UniProt Q9R1E6). As to the kind of experiment: Inhibition of ATX in mouse plasma assessed as inhibition of LPA production after 2 hrs by LC-MS/MS analysis. Format: cell-free.
For data set [15], the target named is T2, Autotaxin. Description: Inhibition of recombinant mouse ATX using lysophosphatidylcholine as substrate by choline release assay.
Data set [16] can be described thus: Half life in human. The settings on record: in vivo. The format is ADME, organism-based.
For data set [17], the target named is T1, Autotaxin. As to the kind of experiment: Inhibition of recombinant ATX in human Hep3B cells using lysophosphatidylcholine as substrate preincubated for 15 mins followed by substrate addition measured after 1.5 to 3 hrs by choline release assay. The format is cell-based, Hep 3B2.
The nature of data set [18]: Effective half life in Lewis rat at 1 mg/kg, iv measured up to 24 hrs by LC-MS/MS analysis. As to conditions: in vivo, read-out: t1/2eff (converted). The format is ADME, organism-based.
The nature of data set [19]: Clearance in Lewis rat at 1 mg/kg, iv measured up to 24 hrs by LC-MS/MS analysis. Format: ADME, organism-based. The settings on record: in vivo.
Data set [20] in a line: Oral bioavailability in Lewis rat at 1 to 100 mg/kg administered through gavage measured up to 24 hrs by LC-MS/MS analysis. Format: ADME, organism-based. As to conditions: in vivo.
The subject of data set [21] is Rattus norvegicus. Description: In vivo inhibition of ATX in Lewis rat air pouch model of inflammation assessed as inhibition of carrageenan-induced LPA production in plasma at 100 mg/kg, po administered through gavage 1 hr before carrageenan injection measured after 3 hrs by LC-MS/MS analysis relative to control. The format is functional.
In data set [22] the test system is Rattus norvegicus. As to the kind of experiment: In vivo inhibition of ATX in Lewis rat air pouch model of inflammation assessed as inhibition of carrageenan-induced LPA production in pouch fluid at 100 mg/kg, po administered through gavage 1 hr before carrageenan injection measured after 3 hrs by LC-MS/MS analysis relative to control. The format is functional.

Data set [23] in a line: Plasma concentration in Lewis rat air pouch model of inflammation at 3 mg/kg, po administered through gavage 1 hr before carrageenan injection measured after 3 hrs by LC-MS/MS analysis relative to control. The format is ADME, organism-based.
Data set [24] in a line: Plasma concentration in Lewis rat air pouch model of inflammation at 100 mg/kg, po administered through gavage 1 hr before carrageenan injection measured after 3 hrs by LC-MS/MS analysis relative to control. Format: ADME, organism-based.
In data set [25] the target is T1, Autotaxin. As to the kind of experiment: Inhibition of recombinant ATX in human MDA-MB-435 cells at 10 uM using FS3 as substrate fluorescence assay relative to control. The format is cell-based.
The target of data set [26] is T1, Autotaxin. Description: Inhibition of recombinant human C-terminal His-tagged ATX expressed in HEK293E cells using lysophosphatidylcholine as substrate preincubated with enzyme followed by substrate addition measured after 1 hr by AmplexRed dye based fluorescence assay.
The target of data set [27] is T1, Autotaxin. As to the kind of experiment: Inhibition of human recombinant ATX using FS3 as substrate incubated for 30 mins by fluorescence assay.

The structures appear in SMILES notation. Some results are limits rather than exact numbers.

In the case of `O=C(OCc1cc(Cl)cc(Cl)c1)N1CCC(N2CCN(C(=O)c3ccc4[nH]c(=O)oc4c3)CC2)CC1`, the INH in [1] was below 1 µM.

One may read the IC50 as the concentration at which inhibition is half-maximal. For the molecule `Cc1c(Sc2cccc(C(=O)O)n2)c2ccc(Cl)cc2n1-c1cnn(C)c1`, the IC50 in [2] is below 300 nM.

The Ki is the equilibrium dissociation constant of an inhibitor or competing ligand from its target. `CCCCCCCCCCCCCCCC(=O)N[C@@H](Cc1ccc(OCc2ncc(C)c(OC)c2C)cc1)[C@@H](O)CP(=O)(O)O`: the Activity in data set [3] worked out at 27%; in data set [4], 13%; in data set [5], 6%. Moreover, the inhibitory constant (Ki) in data set [6] turned out to be 1300 nM; in data set [7], 390 nM.

On to `CCCCCCCCCCCCCCc1ccc(CP(=O)(O)O)cc1`, for which, in [8], the IC50 worked out at 170 nM. The Ki in [9] worked out at 280 nM; in [10], 270 nM.

Usually inhibition stands for how much of the control response was suppressed. The molecule `O=C(Nc1cccc(F)c1)c1cc(S(=O)(=O)N2CCOCC2)c(Cl)cc1Cl` came in with an inhibition in [11] of 41%. In data set [12], the IC50 is 31.4 nM.

For `CCc1nc2c(C)cc(N3CCN(CC(=O)N4CC(O)C4)CC3)cn2c1N(C)c1nc(-c2ccc(F)cc2)c(C#N)s1` [ZIRITAXESTAT], the figures for the IC50 in [13], in data set [14] and in [15] were at least 500 nM, at least 500 nM and 224 nM, respectively. The molecule also showed a half-life in data set [16] of 5 h.

Consider `N#C/C(=C\c1nn(Cc2ccc(F)cc2)c2cc(Cl)ccc12)c1ccc(C(=O)O)cc1`, for which the IC50 in [17] was below 500 nM.

For orientation: clearance means the rate of elimination divided by the concentration. In general, bioavailability refers to dose-corrected exposure relative to a reference, in per cent. A lower bioavailability goes with poor availability. The inhibition in vivo is how much of the control response was suppressed. As to `O=C(CCN1CCN(C(=O)OCc2cc(Cl)cc(Cl)c2)CC1)c1ccc2[nH]c(=O)oc2c1`, in data set [18], the half-life was 1.2 h. The molecule further yielded a clearance in data set [19] of 31 mL/min/kg. The same molecule gave a bioavailability in data set [20] of 43%. In addition, the inhibition in vivo at 100 mg/kg in data set [21] and in data set [22] was at most 95% each time. Besides, the concentration at 3 h in data set [23] is 79 nM; in data set [24] it was 2680 nM.

`CCn1cc(C(=O)O)c(=O)c2cnc(N3CCN(C(=S)NCc4cc(Cl)cc(Cl)c4)CC3)nc21`: the inhibition in data set [25] was 0%.

Turning to `O=C(c1cc(-c2cnn[nH]2)ccn1)N1CCc2nc(NC3Cc4ccccc4C3)ncc2C1`, the IC50 in [26] was below 1.7 nM.

With `O=C(CCc1nc2ccccc2s1)N1CCc2ncnc(Cc3ccc(F)cc3)c2C1`, the concentration for half-maximal inhibition (IC50) in data set [27] amounted to 2.59 nM.
